Data from the NIST ThermoML archive (doi:10.1016/j.fluid.2009.09.024).
Values joined by “and” are separate entries in the source; they are usually repeats but may differ in a detail not shown here. Equal values may be shown once. ± gives the expanded uncertainty stated by the source.

Columns and labels:
[1] = for mass density: Vibrating tube method; for vapor or sublimation pressure: Closed cell (Static) method
[2] = xn = mol fraction of the nth substance listed; conditions: Liquid, Vibrating tube method

Cc1ccccc1 [toluene]
[1]
Conditions	mass density, 333.15 K [kg/m3]	mass density, 353.15 K [kg/m3]	vapor or sublimation pressure, 333.15 K [kPa]	vapor or sublimation pressure, 353.15 K [kPa]
Gas	0.6829 ± 0.1	1.3863 ± 0.1	–	–
Liquid	830.467 ± 0.24	810.89 ± 0.24	18.62 ± 0.1	38.4 ± 0.2

Cc1ccccc1C [1,2-dimethylbenzene]
[1]
Conditions	mass density, 333.15 K	mass density, 353.15 K	vapor or sublimation pressure, 333.15 K	vapor or sublimation pressure, 353.15 K
Gas	–	0.4397 ± 0.1 kg/m3 and 0.4571 ± 0.1 kg/m3	–	–
Liquid	845.8 ± 0.23 kg/m3 and 845.839 ± 0.23 kg/m3	828.5 ± 0.24 kg/m3 and 828.528 ± 0.24 kg/m3	5.32 ± 0.04 kPa and 5.44 ± 0.04 kPa	12.8 ± 0.08 kPa and 12.66 ± 0.08 kPa

Cc1cccc(C)c1 [1,3-dimethylbenzene] + O=S1(=O)CCCC1
[2], x1 = 1
Conditions	mass density [kg/m3]
333.15 K	829.305 ± 0.24
353.15 K	811.602 ± 0.24

Cc1ccccc1C [1,2-dimethylbenzene] + Cc1ccccc1
mass density [kg/m3], [2]
Conditions	333.15 K	353.15 K
x2 = 0	845.8 ± 0.23	828.5 ± 0.24
x2 = 0.102	–	826.692 ± 0.24
x2 = 0.108	844.136 ± 0.24	–
x2 = 0.202	–	824.931 ± 0.24
x2 = 0.203	842.673 ± 0.24	–
x2 = 0.299	–	823.222 ± 0.24
x2 = 0.301	841.173 ± 0.24	–
x2 = 0.4	839.661 ± 0.24	821.449 ± 0.24
x2 = 0.499	838.134 ± 0.24	819.705 ± 0.24
x2 = 0.6	–	817.918 ± 0.24
x2 = 0.601	836.576 ± 0.24	–
x2 = 0.699	835.072 ± 0.24	816.176 ± 0.24
x2 = 0.799	–	814.417 ± 0.24
x2 = 0.8	833.533 ± 0.24	–
x2 = 0.899	–	812.661 ± 0.24
x2 = 0.9	831.999 ± 0.24	–

c1ccccc1 [benzene] + CCCCCCCCC
[2], x1 = 1
Conditions	mass density [kg/m3]
333.15 K	835.696 ± 0.16
353.15 K	814.086 ± 0.16

Cc1ccccc1 [toluene] + Cc1ccccc1C
[2], x1 = 1
Conditions	mass density [kg/m3]
333.15 K	830.467 ± 0.24
353.15 K	810.89 ± 0.24

O=S1(=O)CCCC1 [sulfolane] + Cc1ccccc1C
mass density [kg/m3], [2]
Conditions	333.15 K	353.15 K
x2 = 0	1231.12 ± 1.3	1214.39 ± 1.3
x2 = 0.01	1227.27 ± 1.5	1210.53 ± 1.5
x2 = 0.015	1225.35 ± 1.5	1208.6 ± 1.5
x2 = 0.02	1223.42 ± 1.5	1206.67 ± 1.5
x2 = 0.03	1219.57 ± 1.5	1202.81 ± 1.5
x2 = 0.1	1192.25 ± 1.4	1175.45 ± 1.4
x2 = 0.2	1153.84 ± 1.2	1136.98 ± 1.2
x2 = 0.3	1115.37 ± 1.1	1098.46 ± 1.1
x2 = 0.4	1076.99 ± 1	1060.02 ± 1
x2 = 0.499	1038.59 ± 0.94	1021.56 ± 0.93
x2 = 0.599	1000.24 ± 0.88	983.157 ± 0.88
x2 = 0.699	961.436 ± 0.85	944.296 ± 0.85
x2 = 0.801	922.401 ± 0.82	905.202 ± 0.82
x2 = 0.899	884.731 ± 0.81	867.477 ± 0.81

CCCCCCCCC [nonane]
[1]
Conditions	mass density, 333.15 K [kg/m3]	mass density, 353.15 K [kg/m3]	vapor or sublimation pressure, 333.15 K [kPa]	vapor or sublimation pressure, 353.15 K [kPa]
Gas	0.1868	0.4513 ± 0.1	–	–
Liquid	685.961 ± 0.25	669.919 ± 0.25	3.97 ± 0.03	10.28 ± 0.06

CCCCCCCCC [nonane] + c1ccccc1
mass density [kg/m3], [2]
Conditions	333.15 K	353.15 K
x2 = 0	685.961 ± 0.25	669.919 ± 0.25
x2 = 0.1	700.985 ± 0.38	–
x2 = 0.101	–	684.481 ± 0.38
x2 = 0.199	–	698.728 ± 0.37
x2 = 0.2	715.957 ± 0.38	–
x2 = 0.248	–	705.756 ± 0.36
x2 = 0.3	–	713.217 ± 0.36
x2 = 0.302	731.175 ± 0.37	–
x2 = 0.399	–	727.581 ± 0.36
x2 = 0.404	746.508 ± 0.36	–
x2 = 0.499	–	741.992 ± 0.35
x2 = 0.502	761.194 ± 0.36	–
x2 = 0.599	775.788 ± 0.35	756.286 ± 0.35
x2 = 0.699	790.766 ± 0.35	–
x2 = 0.701	–	771.023 ± 0.34
x2 = 0.799	805.683 ± 0.34	785.21 ± 0.34
x2 = 0.899	820.654 ± 0.34	799.582 ± 0.33
x2 = 0.94	826.713 ± 0.34	–
x2 = 0.969	831.191 ± 0.34	–

O=S1(=O)CCCC1 [sulfolane]
[1], Liquid
Conditions	mass density [kg/m3]	vapor or sublimation pressure [kPa]
333.15 K	1231.12 ± 0.42	0.01 ± 0.01
353.15 K	1214.39 ± 0.41	0.04 ± 0.01

Cc1cccc(C)c1 [1,3-dimethylbenzene]
[1]
Conditions	mass density, 333.15 K [kg/m3]	mass density, 353.15 K [kg/m3]	vapor or sublimation pressure, 333.15 K [kPa]	vapor or sublimation pressure, 353.15 K [kPa]
Gas	0.252 ± 0.1	0.5448 ± 0.1	–	–
Liquid	829.305 ± 0.24	811.602 ± 0.24	6.59 ± 0.05	15.09 ± 0.09

c1ccccc1 [benzene]
[1]
Conditions	mass density, 333.15 K [kg/m3]	mass density, 353.15 K [kg/m3]	vapor or sublimation pressure, 333.15 K [kPa]	vapor or sublimation pressure, 353.15 K [kPa]
Gas	1.5172 ± 0.1	2.69 ± 0.1	–	–
Liquid	835.696 ± 0.16	814.086 ± 0.16	52.45 ± 0.27	100 ± 0.51

Cc1ccccc1C [1,2-dimethylbenzene] + O=S1(=O)CCCC1
[2], x1 = 1
Conditions	mass density [kg/m3]
333.15 K	845.839 ± 0.23
353.15 K	828.528 ± 0.24

O=S1(=O)CCCC1 [sulfolane] + Cc1cccc(C)c1
mass density [kg/m3], [2]
Conditions	333.15 K	353.15 K
x2 = 0	1231.12 ± 0.42	1214.39 ± 0.41
x2 = 0.01	1227.11 ± 0.9	–
x2 = 0.015	1225.1 ± 0.9	1208.34 ± 0.9
x2 = 0.02	1223.09 ± 0.9	1206.33 ± 0.9
x2 = 0.03	1219.07 ± 0.9	1202.3 ± 0.9
x2 = 0.05	–	1194.25 ± 0.9
x2 = 0.1	1190.81 ± 0.89	1173.97 ± 0.89
x2 = 0.199	1150.86 ± 0.88	1133.93 ± 0.87
x2 = 0.299	1110.94 ± 0.86	1093.91 ± 0.86
x2 = 0.399	1070.45 ± 0.86	1053.33 ± 0.85
x2 = 0.501	1029.46 ± 0.84	1012.24 ± 0.84
x2 = 0.6	989.939 ± 0.84	972.621 ± 0.84
x2 = 0.7	949.485 ± 0.84	932.07 ± 0.84
x2 = 0.799	909.766 ± 0.83	892.257 ± 0.84
x2 = 0.9	869.443 ± 0.83	851.836 ± 0.84
